The structures appear in SMILES notation.

Tested on in the first assay: not listed separately
The experiment in a line: Inhibition of anti-CD3, anti-CD28 induced PBL T-cell proliferation. As to conditions: Homo sapiens.
Take `Cc1cccc(Cl)c1NC(=O)c1ccc2nc(NC(=O)C3CC3CO)sc2c1` (trans isomer): half-maximal inhibition (IC50) was put at 1450 nM.

`Cc1cccc(Cl)c1NC(=O)c1ccc2nc(NC(=O)NC3CC(C)(C)NC(C)(C)C3)sc2c1` came in with an IC50 of 2800 nM.

The compound `Cc1cccc(Cl)c1NC(=O)c1ccc2nc(NC(=O)NC(C)(C)C)sc2c1` registered an IC50 of 1100 nM.

Compound `Cc1cccc(Cl)c1NC(=O)c1ccc2nc(NC(=O)C3CC3C)sc2c1` (configuration not stated) returned a half-maximal inhibitory concentration (IC50) of 1580 nM.

On to `Cc1cccc(Cl)c1NC(=O)c1ccc2nc(NC(=O)C3CC3CN(C)C)sc2c1` (trans isomer), for which the IC50 came to 3530 nM.

In turn, `Cc1cccc(Cl)c1NC(=O)c1ccc2nc(NC(=O)NCCC3CCCN3C)sc2c1` (configuration not stated) displayed an IC50 of 960 nM.

For the next assay, the target named is Tyrosine-protein kinase Lck (Homo sapiens, UniProt P06239). The experiment in a line: In vitro inhibition of phosphorylation of an exogenous substrate by human p56 Lck tyrosine kinase expressed as a His-tagged protein in insect cells using a baculovirus expression system.
Chain of Tyrosine-protein kinase Lck (P06239 whole entry): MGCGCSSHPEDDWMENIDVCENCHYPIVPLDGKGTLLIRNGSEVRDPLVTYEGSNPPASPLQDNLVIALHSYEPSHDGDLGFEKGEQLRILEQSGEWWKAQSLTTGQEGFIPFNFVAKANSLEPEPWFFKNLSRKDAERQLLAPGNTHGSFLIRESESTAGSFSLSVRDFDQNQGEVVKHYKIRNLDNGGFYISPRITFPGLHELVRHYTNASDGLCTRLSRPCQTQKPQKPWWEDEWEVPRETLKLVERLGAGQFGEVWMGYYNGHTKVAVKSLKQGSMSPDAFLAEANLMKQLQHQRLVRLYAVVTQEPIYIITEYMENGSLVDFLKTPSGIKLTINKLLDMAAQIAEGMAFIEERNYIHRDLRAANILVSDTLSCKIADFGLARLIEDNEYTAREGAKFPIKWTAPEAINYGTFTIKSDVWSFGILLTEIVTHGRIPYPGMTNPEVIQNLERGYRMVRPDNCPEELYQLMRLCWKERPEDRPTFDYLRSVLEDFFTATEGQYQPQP
Conditions: not given
`Cc1cc(C)c(NC(=O)c2ccc3nc(NC(=O)OC(C)(C)C)sc3c2Cl)c(C)c1` gave an IC50 of 4400 nM.

Regarding `Cc1cc(C)c(NC(=O)c2ccc3nc(N)sc3n2)c(C)c1`, the concentration for half-maximal inhibition (IC50) was over 12500 nM.

As to `Cc1cc(C)c(NC(=O)c2ccc3nc(N)sc3c2)c(C)c1`, the IC50 worked out at 15000 nM.

`Cc1cccc(Cl)c1NC(=O)c1ccc2nc(NC(=O)C3CCC3)sc2c1` gave an IC50 of 666 nM.

Compound `Cc1cc(C)c(NC(=O)c2ccc3[nH]c(N)nc3c2)c(C)c1` had a half-inhibitory concentration (IC50) of over 12500 nM.

For `Cc1cc(C)c(NC(=O)c2ccc3nc(N)oc3c2)c(C)c1`, the midpoint of inhibition, the IC50, lay at 23000 nM.

Take `COC(=O)c1cc(C)c(NC(=O)c2ccc3nc(NC(=O)OC(C)(C)C)sc3c2)c(C)c1`: inhibition was half-maximal at 3120 nM (IC50).

As to `Cc1ccccc1CC(=O)Nc1nc2ccc(C(=O)Nc3c(C)cccc3Cl)cc2s1`, the IC50 is 565 nM.

With `Cc1cc(C)c(NC(=O)c2ccc3nc(NC(=O)c4ccccc4)sc3c2)c(C)c1`, the half-inhibitory concentration (IC50) was over 12500 nM.

For `Cc1cc(Br)cc(C)c1NC(=O)c1ccc2nc(NC(=O)OC(C)(C)C)sc2c1`, the IC50 is 110 nM.

Consider `Cc1cccc(C)c1NC(=O)c1ccc2nc(NC(=O)C3CC3C)sc2c1` (configuration not stated), for which inhibition was half-maximal at 11 nM (IC50).

In turn, `CCC(NC(=O)Nc1nc2ccc(C(=O)Nc3c(C)cccc3Cl)cc2s1)c1ccccc1` (configuration not stated) came in with a half-inhibitory concentration (IC50) of 19 nM.

Regarding `Cc1cccc(Cl)c1NC(=O)c1ccc2nc(NC(=O)C3CCCO3)sc2c1` (configuration not stated), the half-inhibitory concentration (IC50) came out at 272 nM.

On to `CCCCNC(=O)Nc1nc2ccc(C(=O)Nc3c(C)cc(C)cc3C)cc2s1`, for which 330 nM corresponded to half-maximal inhibition (IC50).

`Cc1cc(C)c(NC(=O)c2cccc3sc(NC(=O)OC(C)(C)C)nc23)c(C)c1` came in with an IC50 of over 12500 nM.

For `Cc1cc(C)c(NC(=O)c2ccc3nc(NC(=O)OC(C)(C)C)sc3c2)c(Br)c1`, the concentration for half-maximal inhibition (IC50) is 200 nM.

With `Cc1cccc(Cl)c1NC(=O)c1ccc2nc(NC(=O)NC3CC(C)(C)NC(C)(C)C3)sc2c1`, the midpoint of inhibition, the IC50, lay at 4 nM.

Turning to `Cc1cc(CO)cc(C)c1NC(=O)c1ccc2nc(NC(=O)OC(C)(C)C)sc2c1`, inhibition was half-maximal at 310 nM (IC50).

Take `Cc1cccc(C)c1NC(=O)c1ccc2nc(NC(=O)C(C)C)sc2c1`: the IC50 is 1800 nM.

The compound `Cc1cc(C)c(NC(=O)c2ccc3nc(NC(=O)OC(C)(C)C)sc3n2)c(C)c1` displayed a 50% inhibitory concentration (IC50) of over 12500 nM.

Compound `Cc1cccc(Cl)c1NC(=O)c1ccc2nc(NC(=O)Nc3ccccn3)sc2c1` yielded an IC50 of 2010 nM.

With `Cc1cc(C)c(NC(=O)c2ccc3nc(NC(=O)NC4CC4)sc3c2)c(C)c1`, it took 300 nM to reach half-maximal inhibition (IC50).

The compound `Cc1cccc(Cl)c1NC(=O)c1ccc2nc(NC(=O)NC(C)(C)C)sc2c1` registered a concentration for half-maximal inhibition (IC50) of 4 nM.

The compound `Cc1cc(C)c(NC(=O)c2ccc3nc(NC(=O)C4CC4)sc3c2)c(C)c1` returned an IC50 of 20 nM.

Turning to `Cc1cccc(Cl)c1NC(=O)c1ccc2nc(NC(=O)Nc3ccc(F)cc3)sc2c1`, the IC50 amounted to 123 nM.

For `Cc1cccc(C)c1NC(=O)c1ccc2nc(NC(=O)OC(C)(C)C)sc2c1`, the IC50 worked out at 90 nM.

For `Cc1cccc(Cl)c1NC(=O)c1ccc2nc(NC(=O)NCc3ccc(F)cc3)sc2c1`, the half-inhibitory concentration (IC50) was found to be 87 nM.

For the compound `Cc1cccc(CCO)c1NC(=O)c1ccc2nc(NC(=O)OC(C)(C)C)sc2c1`, the IC50 was over 12500 nM.

With `Cc1cc(C)c(NC(=O)c2ccc3nc(NC(=O)NC(C)(C)C)sc3c2)c(C)c1`, inhibition was half-maximal at 70 nM (IC50).

Take `Cc1cc(C)c(NC(=O)c2ccc3nc(NC(=O)NCc4ccccc4)sc3c2)c(C)c1`: half-maximal inhibition (IC50) required 1730 nM.

Regarding `Cc1cc(C)c(NC(=O)c2ccc3nc(NC(=O)OC(C)(C)C)sc3c2)c(C)c1Br`, the IC50 was over 12500 nM.

As to `CCC(C)(C)NC(=O)Nc1nc2ccc(C(=O)Nc3c(C)cccc3Cl)cc2s1`, inhibition was half-maximal at 55 nM (IC50).

Compound `Cc1cc(C)c(NC(=O)c2ccc3nc(NC(=O)C(C)C)sc3c2)c(C)c1` displayed an IC50 of 700 nM.

For the compound `Cc1cccc(C)c1NC(=O)c1ccc2nc(NC(=O)C3CC3)sc2c1`, the IC50 was found to be 15 nM.

Regarding `COc1cccc(OC)c1NC(=O)c1ccc2nc(NC(=O)OC(C)(C)C)sc2c1`, the 50% inhibitory concentration (IC50) is over 12500 nM.

`Cc1cccc(Br)c1NC(=O)c1ccc2nc(NC(=O)OC(C)(C)C)sc2c1` gave an IC50 of 4270 nM.

As to `Cc1cccc(Cl)c1NC(=O)c1ccc2nc(NC(=O)Nc3ncccn3)sc2c1`, the IC50 was over 3130 nM.

`Cc1cc(C)c(NC(=O)c2ccc3[nH]c(NC(=O)OC(C)(C)C)nc3c2)c(C)c1` showed a concentration for half-maximal inhibition (IC50) of 3230 nM.

In the case of `Cc1cc(C)c(NC(=O)c2cccc3nc(NC(=O)OC(C)(C)C)sc23)c(C)c1`, the IC50 is over 12500 nM.

Consider `Cc1cc(C)c(NC(=O)c2ccc3nc(NC(=O)OC(C)(C)C)sc3c2)c(C)c1`, for which the IC50 came out at 290 nM.

With `Cc1cc(C)c(NC(=O)c2ccc3sc(NC(=O)OC(C)(C)C)nc3c2)c(C)c1`, the half-inhibitory concentration (IC50) is over 12500 nM.

For the compound `Cc1cc(Br)ccc1NC(=O)c1ccc2nc(NC(=O)OC(C)(C)C)sc2c1`, the concentration for half-maximal inhibition (IC50) was over 12500 nM.

Regarding `Cc1cccc(C)c1NC(=O)c1ccc2nc(NC(=O)NC(C)(C)C)sc2c1`, the IC50 stood at 100 nM.

Consider `Cc1cccc(Cl)c1NC(=O)c1ccc2nc(NC(=O)OC(C)(C)C)sc2c1`, for which the IC50 came to 70 nM.

The compound `Cc1cc(C)c(NC(=O)c2sc(NC(=O)OC(C)(C)C)nc2C)c(C)c1` displayed an IC50 of 3000 nM.

Regarding `Cc1cc(C)c(NC(=O)c2cc3sc(NC(=O)OC(C)(C)C)nc3cc2Cl)c(C)c1`, the IC50 is over 12500 nM.

`Cc1cccc(Cl)c1NC(=O)c1ccc2nc(NC(=O)NCc3ccco3)sc2c1`: inhibition was half-maximal at 39 nM (IC50).

`Cc1cccc(Cl)c1NC(=O)c1ccc2nc(NC(=O)NCCN(C)C)sc2c1`: the IC50 was 30 nM.

Turning to `Cc1cc(C)c(NC(=O)c2sc(N)nc2C)c(C)c1`, half-maximal inhibition (IC50) required 3200 nM.

On to `Cc1cccc(Cl)c1NC(=O)c1ccc2nc(NC(=O)C3CC3)sc2c1`, for which inhibition was half-maximal at 9 nM (IC50).

The compound `Cc1cc(C)c(NC(=O)c2ccc3nc(NC(=O)OC(C)(C)C)oc3c2)c(C)c1` showed an IC50 of 7250 nM.

`Cc1cccc(Cl)c1NC(=O)c1ccc2nc(NC(=O)NC3CCCC3)sc2c1` had an IC50 of 45 nM.

Turning to `CC(=O)c1cccc(O)c1NC(=O)c1ccc2nc(NC(=O)OC(C)(C)C)sc2c1`, the IC50 is over 12500 nM.

`Cc1cccc(C)c1NC(=O)c1ccc2nc(NC(=O)NC3CC3)sc2c1`: the IC50 is 90 nM.

Compound `Cc1cc(C)c(NC(=O)c2ccc3nc(NC(=O)OC(C)(C)C)sc3c2)c(Br)c1C` registered a 50% inhibitory concentration (IC50) of over 12500 nM.

`Cc1cccc(Cl)c1NC(=O)c1ccc2nc(NC(=O)NCCC3CCCN3C)sc2c1` (configuration not stated) registered an IC50 of 7 nM.

`COc1cc(C(=O)Nc2c(C)cc(C)cc2C)nc2sc(NC(=O)OC(C)(C)C)nc12`: the half-inhibitory concentration (IC50) was over 12500 nM.

The compound `Cc1cc(C)c(NC(=O)c2cc(C)c3nc(NC(=O)OC(C)(C)C)sc3c2)c(C)c1` returned an IC50 of 5600 nM.

Compound `Cc1cccc(Cl)c1NC(=O)c1ccc2nc(NC(=O)NC3CC3)sc2c1` returned an IC50 of 90 nM.

As for `Cc1ccc(C(C)C)c(C)c1NC(=O)c1ccc2nc(NC(=O)OC(C)(C)C)sc2c1`, the half-inhibitory concentration (IC50) is over 12500 nM.

For the compound `CCC(C)(C)NC(=O)Nc1nc2ccc(C(=O)Nc3c(C)cccc3C)cc2s1`, the half-inhibitory concentration (IC50) was 80 nM.
